Experimental data reported in patent US7396682B2, “Method for cell adhesion and wound healing” (Regen Biotech, Inc., priority 2000, dated 2008).
Entries after “also recorded” stand apart in the source; their conditions may differ.

B1: vitronectin: human plasma vitronectin (Promega), coated extracellular matrix protein (protein)
chain: DQESCKGRCTEGFNVDKKCQCDELCSYYQSCCTDYTAECKPQVTRGDVFTMPEDEYTVYDDGEEKNNATVHEQVGGPSLTSDLQAQSKGNPEQTPVLKPEEEAPAPEVGASKPEGIDSRPETLHPGRPQPPAEEELCSGKPFDAFTDLKNGSLFAFRGQYCYELDEKAVRPGYPKLIRDVWGIEGPIDAAFTRINCQGKTYLFKGSQYWRFEDGVLDPDYPRNISDGFDGIPDNVDAALALPAHSYSGRERVYFFKGKQYWEYQFQHQPSQEECEGSSLSAVFEHFAMMQRDSWEDIFELLFWGRTSAGTRQPQFISRDWHGVPGQVDAAMAGRIYISGMAPRPSLAKKQRFRHRNRKGYRSQRGHSRGRNQNSRRPSRATWLSLFSSEESNLGANNYDDYRMDWLVPATCEPIQSVFFFSGDKYYRVNLRTRRVDTVDPPYPRSIAQYWLGCPAPGHL
B2: βig-h3 D-II: recombinant polypeptide, 2nd fas-1 domain of βig-h3, amino acids 237-377 (SEQ ID NO:24) (protein)
chain: STITNNIQQIIEIEDTFETLRAAVAASGLNTMLEGNGQYTLLAPTNEAFEKIPSETLNRILGDPEALRDLLNNHILKSAMCAEAIVAGLSVETLEGTTLEVGCSGDMLTINGKAIISNKDILATNGVIHYIDELLIPDSAK
modifications: left off: small tags and cut ends

Experiments:
HCE cells = assay: Inhibition assay of HCE cell adhesion using matrix peptides and reagents; type: cell-based, human; settings: HCE cells preincubated 30 min with reagent; for inhibition of cell adhesion to fibronectin: dishes coated with 10 μg/ml fibronectin; for inhibition of cell adhesion to βig-h3: dishes coated with 10 μg/ml βig-h3
Description: In order to identify cell surface receptors involved in the cell adhesion activity of βig-h3 protein, an inhibition assay was performed using various reagents.
Initially, plastic culture dishes were coated with 10 μg/ml fibronectin, βigh3-WT or βigh3-ΔRGD. HCE cells were preincubated for 30 min in media containing 5 mM EDTA, 100 μg/ml βigh3-WT, 100 μg/ml βigh3-ΔRGD, 1 mM RGD, 1 mM RGE or 100 μg/ml fibronectin, or none of them, and then assayed for cell adhesion as in Example 1.

K562 cells = assay: K562 cell adhesion to coated proteins (hexosaminidase analysis); type: cell-based; settings: 1 hour
Description: For another control experiment, K562 cells, known to express α5, but not α3 integrin, were used. K562 cells were inoculated onto plates coated with βigh3-WT, fibronectin, laminin, or type I collagen and incubated for 1 hour, followed by the hexosaminidase analysis.

[1] = tested on: Human corneal epithelial (HCE) cells; assay: HCE cell adhesion and spreading assay on protein-coated plates; type: cell-based; settings: HCE cells on coated recombinant protein
Description: Human corneal epithelial (HCE) cells used in this assay were cultured in DMEM ([…], Gibco BRL) supplemented with 15% fetal bovine serum, Gentamicin (40 μg/ml), insulin (5 μg/ml), cholera toxin (0.1 μg/ml) and human epidermal growth factor (hEGF) at 37° C. in 5% CO2.
The cell adhesion assay was performed as follows. First, the recombinant βig-h3 proteins or other extracellular matrix proteins were let to adhere to the bottoms of 96-well microculture plates (Falcon) by incubation at 37° C. for 1 hour and blocked with PBS containing 0.2% BSA. The coated extracellular matrix proteins were human plasma vitronectin (Promega), purified human plasma fibronectin (pFN), chicken collagen types I and II (Chemicon International Inc.), bovine collagen types IV and VI (Chemicon), mouse laminin (Chemicon), and bovine serum albumin (BSA) (Sigma). Cells were trypsinized and suspended in the culture media at a density of 2×10^5 cells/ml. 0.1 ml of the cell suspension was added to each well of the plates coated with the recombinant proteins.
Following incubation at 37° C. for 1 hour, unattached cells were removed by rinsing with PBS. Attached cells were incubated for 1 hour at 37° C. in 50 mM citrate buffer, pH 5.0, containing 3.75 mM p-nitrophenol-N-acetyl 1-β-D-glycosaminide as a hexosaminidase substrate and 0.25% Triton X-100, followed by the addition of 50 mM glycine buffer, pH 10.4, containing 5 mM EDTA to block the enzyme activity. A measurement was made of absorbance at 405 nm in a Multiskan MCC/340 microplate reader.
To determine cell area as an index for cell adhesion activity, 4×10^4 cells were applied to substrates in 48-well culture plates. The attached cells were fixed weith 8% glutaraldehyde (Sigma) and then stained with 0.25% Crystal Violet (Sigma) in 20% methanol. Measurement of cell areas was performed by Image-Pro plus software (Media Cybernetics). Experiments were repeated in triplicate with 200 or 300 measurements per site for each experiment. Data is reported as the mean area at specific time points±standard error of mean.

Molecule	inhibition of cell adhesion to fibronectin (HCE cells)	inhibition of cell adhesion to βig-h3 (HCE cells)	adhesion of K562 cells to coated protein (K562 cells)	HCE cell adhesion activity [1]
O=C(O)CN(CCN(CC(=O)O)CC(=O)O)CC(=O)O [EDTA]	significantly inhibited	significantly inhibited		
O=C(O)CN(CCOCCOCCN(CC(=O)O)CC(=O)O)CC(=O)O [EGTA]	partially inhibited	partially inhibited		
RGD peptide: Arg-Gly-Asp peptide used at 1 mM in inhibition assay	significantly inhibited	significantly inhibited		
RGE peptide: RGE peptide used at 1 mM in inhibition assay		not inhibited		
B1			adhered	
B2				equally active compared to the wild type βig-h3; also recorded: high cell attachment activity
